The text below walks through data of patent US20100152114A1, “Antioxidant activity of GH-RH Antagonists” (priority 2008, published 2010).

What all share (format): cell-based
The test system of one assay is phosphorylated NFκB p50. Briefly: Western Blot of phosphorylated NFκB p50 in LNCaP cells. Conditions: 1 μM, 72 hours, control R.I: 0.521. As to the method:
(A): is a Western Blot analysis of expression of the phosphorylated NFκB p50, caspase 3 protein and its cleaved form in LNCaP prostate cancer cell line after exposure to GHRH antagonist JMR-132 and GHRH (1-29)NH2. n=2
(§1) Prostate cancer cells LNCaP and breast cancer cells MCF-7 were obtained from American Type Culture Collection (Manassas, Va.) and were cultured as described previously. The antibodies that detect P53, PCNA, GPX1, SOD1, NQ01, Thioredoxin 1, COX2 and COX IV were purchased from Cell Signalling (Danvers, Mass.). The antibodies that detect β actin, NFκB50, pNFκB50, caspase 3 and its cleaved form were purchased from Santa Cruz Biotechnology (Santa Cruz, Calif.). The antibodies against GHRH-R (batch number: SV95) and SV1 (batch number: JH 2317/5) were raised in our laboratory. The signals for the immunoreactive proteins were visualized in a Chemi Doc XRS system (Biorad, Hercules, Calif.). The western Blot assay as well the quantification analysis of the blots was performed as described previously.
LNCaP cells cultured in vitro were exposed to 1 μM GHRH antagonist JMR-132 and 1 μM GHRH(1-29)NH2. The expression levels of NFκB p50, the phosphorylated NFκB p50, caspase 3 (M.W: 35 KDa) and the cleaved caspase 3 were detected by Western Blot. […]

In the next assay the test system is thioredoxin 1. Briefly: Western Blot of thioredoxin 1 in LNCaP cells. The conditions noted are these: 1 μM, 72 hour exposure, control R.I: 0.210. As to the method: FIG. 7: is a Western Blot analysis of expression of the antioxidant enzymes TRX1, NQ01, GPX1 and SOD1 in LNCaP prostate cancer cell line after 72 hour exposure to GHRH antagonist JMR-132 and GHRH(1-29)NH2 n=2.
as §1
LNCaP prostate cancer cell line cultured in vitro was exposed to 1 μM JMR-132 and GHRH(1-29)NH2. The expression levels of the detoxifying enzymes were measured by Western Blot. The GPX1 (M.W: 22 Kda) protein expression was higher in the cells exposed to GHRH (1-29)NH2 (R.I: 0.126) and lower in the cells incubated with GHRH antagonist JMR-132 (R.I: 0.035), as compared to control (R.I:0.107). […]

A further assay has as its system N-nitrotyrosine. The experiment in a line: Protein oxidation: nitrotyrosine immunoblot in LNCaP cells. The conditions noted are these: 1 μM, 72 hour, control R.I: 2.903. As to the method: (§2) The detection of the carbonyl groups, the nitrotyrosine and the lipid peroxidation was performed with the Oxiselect Protein carbonyl Immunoblot, the Oxiselect Nitrotyrosine Immunoblot Kit and the Oxiselect Malondialdehyde Immunoblot Kit respectively (Cell Biolabs, San Diego, Calif.) according the manufacturer s instructions. The detection of the lipid peroxidation using a primary rabbit anti-MDA antibody (Cell Biolabs, San Diego, Calif.) according the manufacturer' instructions. The β-actin signal was used as control.
(§3) LNCaP prostate cancer cell line cultured in vitro were exposed to 1 μM JMR-132 or 1 μM GHRH(1-29)NH2. The levels of the oxidation of the proteins were determined by the detection of the N-nitrotyrosine and the protein carbonyl groups. Both were elevated in the cells exposed to GHRH (1-29)NH2 (R.I: 3.282, 7.415) and decreased in the cells incubated with GHRH antagonist JMR-132 (R.I: 1.251, 4.275), as compared to control (R.I: 2.903, 5.846). The levels of the lipid peroxidation, determined by the detection of the malondialdehyde (MDA), were increased in cells exposed to GHRH (1-29)NH2 (R.I:4.89) and decreased in cells incubated with GHRH antagonist JMR-132 (R.I: 2.973) as compared to control (R.I: 4.433). […]

Another assay has as its system protein carbonyl groups. Briefly: Protein oxidation: protein carbonyl immunoblot in LNCaP cells. The conditions noted are these: 1 μM, 72 hour, control R.I: 5.846. As to the method:
as §2, §3

For the next assay, the system named is reactive oxygen species. The experiment in a line: Intracellular generation of reactive oxygen species (aminophenyl fluorescein) in LNCaP cells. Conditions: 10^−6 M, 30 minutes at 37° C. As to the method: Percentage increase or decrease are expressed vs LNCaP cells cultured in the absence of JMR-132 or GHRH (1-29)NH2. *** (P<0.005).
The detection of the Reactive Oxygen Species was carried out using aminophenyl fluorescein, an indicator for the highly reactive oxygen species (Invitrogen, Carlsbad, Calif., USA). This fluorescein derivative is non fluorescent until it reacts with the hydroxyl radical, peroxynitrite anion or hypochlorite anion. […] LNCaP prostate cancer cells were seeded in 200 μl of RPMI 1640 containing 10 μM aminophenyl fluorescein at a density of 10^3 cells/well onto a 48-well plate and were incubated for 30 minutes at 37° C. with GHRH (1-29)NH2 or JMR-132 at a concentration of 10^−6 M. The fluorescence was measured using a fluorescence plate reader (VICTOR^3 Multilabel Plate Reader, Perkin Elmer, Shelton, Conn., USA) with an excitation wavelength of 490 nm and an emission wavelength of 515 nm.
LNCaP prostate cancer cell line cultured in vitro were exposed to 1 μM JMR-132 or 1 μM GHRH(1-29)NH2. The levels of the oxidation of the proteins were determined by the detection of the N-nitrotyrosine and the protein carbonyl groups. Both were elevated in the cells exposed to GHRH (1-29)NH2 (R.I: 3.282, 7.415) and decreased in the cells incubated with GHRH antagonist JMR-132 (R.I: 1.251, 4.275), as compared to control (R.I: 2.903, 5.846). […]

Ends that are not written are not given here.

“GHRH(1-29)NH2 (YADAIFTNSYRKVLGQLSARKLLQDIMSR-NH2; UniProt P01286 32-60, looked up, fragment) [Growth Hormone-Releasing Hormone (1-29) amide, agonist peptide used for comparison with the antagonist]”: in the assay with phosphorylated NFκB p50, the “expression of the phosphorylated NFκB (R.I)” value was 0.623. The “levels of the thioredoxin 1 protein (R.I)” value in the assay on thioredoxin 1 was found to be 0.277. Moreover, the “N-nitrotyrosine level, protein oxidation (R.I)” value in the assay on N-nitrotyrosine stood at 3.282. The “protein carbonyl groups level, protein oxidation (R.I)” value in the assay with protein carbonyl groups was determined as 7.415. Moreover, the “generation of the reactive oxygen species, higher than control” value in the assay with reactive oxygen species was found to be 36%.
As for “[PhAc^0-Tyr^1, D-Arg^2, Cpa^6, Ala^8, Har^9, Tyr(Me)^10, His^11, Abu^15, His^20, Nle^27, D-Arg^28, Har^29]hGH-RH(1-29)NH2 [JMR-132]”, the “expression of the phosphorylated NFκB (R.I)” value in the assay with phosphorylated NFκB p50 is on record as 0.451. The “levels of the thioredoxin 1 protein (R.I)” value in the assay with thioredoxin 1 is 0.196. In the assay on N-nitrotyrosine, the “N-nitrotyrosine level, protein oxidation (R.I)” value came out at 1.251. For the same substance, the “protein carbonyl groups level, protein oxidation (R.I)” value in the assay with protein carbonyl groups was determined as 4.275. The “generation of the reactive oxygen species, lower than control” value in the assay with reactive oxygen species came to 23%.
